Read-outs that look alike come from different tables or passages of the source. Where no end group is shown, it is not given here.
Legend:
E. faecalis (NCTC 12697) [1] = type: cell-based, Enterococcus faecalis; details: NCTC 12697, 24 h
Method: (§1) The MBIC and MBEC assays were performed to measure the inhibition and eradication of bacterial biofilm in the presence of different concentrations of peptides. Gram-positive bacteria were inoculated in Luria–Bertani (LB) broth at 37 °C overnight whereas Gram-negative bacteria were inoculated in tryptic soy broth (TSB), and then sub-cultured until reaching the logarithmic growth phase by measuring the OD values at a wavelength of 550nm. For the MBIC assay, 99 µL of diluted bacterial suspension (5 × 10^5 CFU/mL) was mixed with 1 µL of prepared peptide solutions in the wells of a round-bottomed 96-well plate, achieving the final concentrations from 512 to 1 µM, and then incubated at 37 °C for 24 h in a shaking incubator at 200 revolutions per minute (rpm). After this, the plate was washed twice by PBS and fixed with methanol for 30 min. For MBEC assay, 100 µL of diluted bacterial suspension (5 × 10^5 CFU/mL) was seeded into a round-bottomed 96-well plate and incubated at 37 °C for 24 h in a shaking incubator at 200 rpm to obtain mature biofilm. After this, plates were washed twice by PBS and incubated with different concentrations of peptide solution from 512 to 1 µM at 37 °C for 24 h. Afterwards, the plate was washed twice with PBS and fixed with methanol for 30 min. Then, both MBIC and MBEC plates were stained by 130 μL of 0.1% (g/v) crystal violet solutions for 30 min and washed with PBS until no apparent staining was observed. Evaporating crystal violet stains were dissolved by 33% (v/v) acetic acid, and the absorbance values were measured by a Synergy HT Microplate Reader (BioTek, Minneapolis, MN, USA) set to 595 nm. The minimum concentration that inhibited the formation of biofilm was defined when compared to the negative control group, as the MBIC. The minimum concentration that eradicated the biofilm was defined, when compared to the negative control group, as the MBEC. The biofilm assays were performed in triplicate.

E. coli (ATCC CRM 8739) [2] = type: cell-based, Escherichia coli; details: ATCC CRM 8739, 24 h
Method: as §1

MRSA (ATCC CRM 12493) [3] = type: cell-based, methicillin-resistant S. aureus; details: ATCC CRM 12493
Method: (§2) The antimicrobial activity of the peptides was determined through the minimum inhibitory concentrations (MICs) and the minimum bactericidal concentration (MBCs) using the broth-dilution method in a 96-well plate, as described in the previous study. Six bacteria, including the Gram-positive bacteria, S. aureus (ATCC CRM 6538), MRSA (ATCC CRM 12493) and E. faecalis (NCTC 12697), the Gram-negative bacteria, E. coli (ATCC CRM 8739), K. pneumoniae (ATCC CRM 43816) and P. aeruginosa (ATCC CRM 9027), the yeast, C. albicans (ATCC CRM 10231) and clinical isolates, S. aureus (B042 V2E1 A), MRSA (B038 V1S1 A), E. coli (ATCC BAA-2340) and K. pneumoniae (ATCC BAA-1705) were used in these assays to evaluate the antimicrobial potency of the two peptides by determining their MICs and MBCs. All bacteria were cultured in MHB and the yeast, C. albicans was cultured in YPD broth overnight. Then, the microorganisms were sub-cultured and diluted to the final concentration of 2 × 10^5 CFU/mL to 5 × 10^5 CFU/mL. The Norfloxacin and amphotericin B were used as positive controls for the bacteria and yeast, respectively. The assay was repeated three times, with five replicates at each time.

MRSA (B038 V1S1 A) = type: cell-based, methicillin-resistant S. aureus; details: B038 V1S1 A
Method: as §2

[4] = test system: C. albicans (ATCC CRM 10231); type: cell-based, Candida albicans; details: ATCC CRM 10231
Method: as §2

[5] = test system: P. aeruginosa (ATCC CRM 9027); type: cell-based, Pseudomonas aeruginosa; details: ATCC CRM 9027
Method: as §2

[6] = test system: K. pneumoniae (ATCC BAA-1705); type: cell-based, Klebsiella pneumoniae; details: ATCC BAA-1705
Method: as §2

[7] = test system: K. pneumoniae (ATCC CRM 43816); type: cell-based, Klebsiella pneumoniae; details: ATCC CRM 43816
Method: as §2

[8] = test system: P. aeruginosa (ATCC CRM 9027); type: cell-based, Pseudomonas aeruginosa; details: ATCC CRM 9027, 24 h
Method: as §1

[9] = test system: S. aureus (ATCC CRM 6538); type: cell-based, Staphylococcus aureus; details: ATCC CRM 6538, 24 h
Method: as §1

[10] = test system: K. pneumoniae (ATCC CRM 43816); type: cell-based, Klebsiella pneumoniae; details: ATCC CRM 43816, 24 h
Method: as §1

horse erythrocytes = type: cell-based
Method: The haemolysis assays were performed by incubating prewashed erythrocyte suspension obtained from fresh defibrinated horse blood (TCS Biosciences Ltd., Buckingham, UK) with a range of peptides at final concentrations from 512 to 1 μM, for 2 h at 37 °C. The red cell suspensions were washed with phosphate-buffered saline (PBS) until the supernatant was clear and then diluted with PBS to form a 2% cell suspension. Peptides were 2-fold diluted by the 2% cell suspension to reach the final concentration range from 512 to 1 μM. The haemolysis of the cell suspensions with either 1% (v/v) Triton X-100 or PBS, were considered as positive controls and negative controls, respectively. After incubation, the extent of haemolysis was determined by measuring the absorbance of the supernatant from each sample at 570 nm with a Synergy HT plate reader (BioTek, USA).
Data were analysed using Prism (Version 8.2.1; GraphPad Software, Inc, San Diego, CA, USA). Error bars in the graphs represented standard errors of means (SEM) of nine repeats from three independent tests. The statistical significance was calculated using two-way ANOVA and is indicated as ns (non-significant difference), * (p < 0.05), ** (p < 0.01), *** (p < 0.001), ****(p < 0.0001). The HC10, HC50 and IC50 values were calculated using the online tool AAT Bioquest (https://www.aatbio.com/index.html, accessed on 6 May 2022).

MRSA (ATCC CRM 12493) [11] = type: cell-based, methicillin-resistant S. aureus; details: ATCC CRM 12493, 24 h
Method: as §1

E. faecalis (NCTC 12697) [12] = type: cell-based, Enterococcus faecalis; details: NCTC 12697
Method: as §2

E. coli (ATCC BAA-2340) = type: cell-based, Escherichia coli; details: ATCC BAA-2340
Method: as §2

E. coli (ATCC CRM 8739) [13] = type: cell-based, Escherichia coli; details: ATCC CRM 8739
Method: as §2

[14] = test system: S. aureus (ATCC CRM 6538); type: cell-based, Staphylococcus aureus; details: ATCC CRM 6538
Method: as §2

S. aureus (B042 V2E1 A) = type: cell-based, Staphylococcus aureus; details: B042 V2E1 A
Method: as §2

Substance	MBEC (E. faecalis (NCTC 12697) [1])	MBIC (E. faecalis (NCTC 12697) [1])	MBEC (E. coli (ATCC CRM 8739) [2])	MBIC (E. coli (ATCC CRM 8739) [2])	MBC (MRSA (ATCC CRM 12493) [3])	MIC (MRSA (ATCC CRM 12493) [3])	MBC (MRSA (B038 V1S1 A))	MIC (MRSA (B038 V1S1 A))	MBC [4]	MIC [4]	MBC [5]	MIC [5]	MBC [6]	MIC [6]	MBC [7]	MIC [7]	MBEC [8]	MBIC [8]	MBEC [9]	MBIC [9]	also measured
FVNVLDKI-NH2 [FV-8, FVNVLDKI-NH2]	>512 µM	>512 µM	>512 µM	>512 µM	>512 µM	>512 µM	>512 µM	>512 µM	>512 µM	>512 µM	>512 µM	>512 µM	>512 µM	>512 µM	>512 µM	>512 µM	>512 µM	>512 µM	>512 µM	>512 µM	MBEC [10]: >512 µM; MBIC [10]: >512 µM; HC10 (horse erythrocytes): 504.21 µM; HC10 (horse erythrocytes; red cells of horse, 2 h): 583.6 µM; MBEC (MRSA (ATCC CRM 12493) [11]): >512 µM; MBIC (MRSA (ATCC CRM 12493) [11]): >512 µM; MBC (E. faecalis (NCTC 12697) [12]): >512 µM; MIC (E. faecalis (NCTC 12697) [12]): >512 µM; MBC (E. coli (ATCC BAA-2340)): >512 µM; MIC (E. coli (ATCC BAA-2340)): >512 µM; MBC (E. coli (ATCC CRM 8739) [13]): >512 µM; MIC (E. coli (ATCC CRM 8739) [13]): >512 µM; MBC [14]: >512 µM; MIC [14]: >512 µM; MBC (S. aureus (B042 V2E1 A)): >512 µM; MIC (S. aureus (B042 V2E1 A)): >512 µM
FVNVLDKIR-NH2 [FV-9, FVNVLDKIR-NH2]	>512 µM	>512 µM	>512 µM	>512 µM	>512 µM	>512 µM	>512 µM	>512 µM	>512 µM	>512 µM	>512 µM	>512 µM	>512 µM	>512 µM	>512 µM	>512 µM	>512 µM	>512 µM	>512 µM	>512 µM	MBEC [10]: >512 µM; MBIC [10]: >512 µM; HC10 (horse erythrocytes): 504.21 µM; HC10 (horse erythrocytes; red cells of horse, 2 h): 504.2 µM; MBEC (MRSA (ATCC CRM 12493) [11]): >512 µM; MBIC (MRSA (ATCC CRM 12493) [11]): >512 µM; MBC (E. faecalis (NCTC 12697) [12]): >512 µM; MIC (E. faecalis (NCTC 12697) [12]): >512 µM; MBC (E. coli (ATCC BAA-2340)): >512 µM; MIC (E. coli (ATCC BAA-2340)): >512 µM; MBC (E. coli (ATCC CRM 8739) [13]): >512 µM; MIC (E. coli (ATCC CRM 8739) [13]): >512 µM; MBC [14]: >512 µM; MIC [14]: >512 µM; MBC (S. aureus (B042 V2E1 A)): >512 µM; MIC (S. aureus (B042 V2E1 A)): >512 µM

From paper PMC9405102, “Targeted Modification and Structure-Activity Study of GL-29, an Analogue of the Antimicrobial Peptide Palustrin-2ISb” (Antibiotics, 2022)
